From patent US9695155B2, “Herbicidal substituted pyrimidinyloxy benzene compounds” (E. I. DU PONT DE NEMOURS AND COMPANY, priority 2013, dated 2017)

Assays:
[1] = system: corn; assay: Test A postemergence; format: in vivo, Zea mays; settings: 0 to 100 scale where 0 is no effect and 100 is complete control; for Corn plant response rating: 125 g ai/ha; for Plant response rating, Corn: 500 g ai/ha
Procedure, shortened: (§1)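 Visual injury scored 0–100 (100 = complete control) against untreated controls about 10 days after treatment in a greenhouse. Test chemicals, formulated with surfactant in non-phytotoxic solvent, were sprayed on soil preemergence or on 2-10 cm, one- to two-leaf plants postemergence.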

[2] = system: giant foxtail; assay: Test A preemergence; format: in vivo, Setaria faberii; settings: for Plant response rating, Foxtail, Giant / Foxtail, Giant plant response rating (0 to 100 scale): 125 g ai/ha; for Plant response rating, Foxtail, Giant / Foxtail, Giant plant response rating: 0 to 100 scale where 0 is no effect and 100 is complete control; for Foxtail, Giant plant response rating: 500 g ai/ha
Procedure, shortened: as §1

[3] = system: sedge, umbrella; assay: Test B flooded paddy test; format: in vivo, Cyperus difformis; settings: Flood, 250 g ai/ha; 0 to 100 scale where 0 is no effect and 100 is complete control
Procedure, shortened: (§2)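 Post-emergence paddy-water application at the 2-leaf stage, with 3 cm flood kept for the whole test. Response was judged visually relative to controls after 13 to 15 greenhouse days, 0 indicating no effect and 100 complete control.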

[4] = system: pigweed; assay: Test A preemergence; format: in vivo, Amaranthus retroflexus; settings: for Pigweed plant response rating (0 to 100 scale): 125 g ai/ha; for Pigweed plant response rating: 500 g ai/ha, 0 to 100 scale where 0 is no effect and 100 is complete control
Procedure, shortened: as §1

[5] = system: velvetleaf; assay: Test A preemergence; format: in vivo, Abutilon theophrasti; settings: for Velvetleaf plant response rating (0 to 100 scale): 125 g ai/ha; for Velvetleaf plant response rating: 500 g ai/ha, 0 to 100 scale where 0 is no effect and 100 is complete control
Procedure, shortened: as §1

[6] = system: pigweed; assay: Test A postemergence; format: in vivo, Amaranthus retroflexus; settings: 0 to 100 scale where 0 is no effect and 100 is complete control; for Pigweed plant response rating: 125 g ai/ha; for Plant response rating, Pigweed: 500 g ai/ha
Procedure, shortened: as §1

[7] = system: corn; assay: Test A preemergence; format: in vivo, Zea mays; settings: for Plant response rating, Corn / Corn plant response rating (0 to 100 scale): 125 g ai/ha; for Plant response rating, Corn / Corn plant response rating: 0 to 100 scale where 0 is no effect and 100 is complete control; for Corn plant response rating: 500 g ai/ha
Procedure, shortened: as §1

[8] = system: giant foxtail; assay: Test A postemergence; format: in vivo, Setaria faberii; settings: 0 to 100 scale where 0 is no effect and 100 is complete control; for Foxtail, Giant plant response rating: 125 g ai/ha; for Plant response rating, Foxtail, Giant: 500 g ai/ha
Procedure, shortened: as §1

[9] = system: morningglory; assay: Test A postemergence; format: in vivo, Ipomoea spp.; settings: 0 to 100 scale where 0 is no effect and 100 is complete control; for Morningglory plant response rating: 125 g ai/ha; for Plant response rating, Morningglory: 500 g ai/ha
Procedure, shortened: as §1

[10] = system: morningglory; assay: Test A preemergence; format: in vivo, Ipomoea spp.; settings: for Morningglory plant response rating (0 to 100 scale): 125 g ai/ha; for Morningglory plant response rating: 500 g ai/ha, 0 to 100 scale where 0 is no effect and 100 is complete control
Procedure, shortened: as §1

[11] = system: barnyardgrass; assay: Test A postemergence; format: in vivo, Echinochloa crus-galli; settings: 0 to 100 scale where 0 is no effect and 100 is complete control; for Barnyardgrass plant response rating: 125 g ai/ha; for Plant response rating, Barnyardgrass: 500 g ai/ha
Procedure, shortened: as §1

[12] = system: rice; assay: Test B flooded paddy test; format: in vivo, Oryza sativa; settings: Flood, 250 g ai/ha; 0 to 100 scale where 0 is no effect and 100 is complete control
Procedure, shortened: as §2

[13] = system: wheat; assay: Test A postemergence; format: in vivo, Triticum aestivum; settings: 0 to 100 scale where 0 is no effect and 100 is complete control; for Wheat plant response rating: 125 g ai/ha; for Plant response rating, Wheat: 500 g ai/ha
Procedure, shortened: as §1

[14] = system: large (Lg) crabgrass; assay: Test A preemergence; format: in vivo, Digitaria sanguinalis; settings: for Plant response rating, Crabgrass, Large / Crabgrass, Large plant response rating (0 to 100 scale): 125 g ai/ha; for Plant response rating, Crabgrass, Large / Crabgrass, Large plant response rating: 0 to 100 scale where 0 is no effect and 100 is complete control; for Crabgrass, Large plant response rating: 500 g ai/ha
Procedure, shortened: as §1

[15] = system: barnyardgrass; assay: Test A preemergence; format: in vivo, Echinochloa crus-galli; settings: for Plant response rating, Barnyardgrass / Barnyardgrass plant response rating (0 to 100 scale, 0 is no effect, 100 is complete control): 125 g ai/ha; for Plant response rating, Barnyardgrass / Barnyardgrass plant response rating: 0 to 100 scale where 0 is no effect and 100 is complete control; for Barnyardgrass plant response rating: 500 g ai/ha
Procedure, shortened: as §1

[16] = system: velvetleaf; assay: Test A postemergence; format: in vivo, Abutilon theophrasti; settings: 0 to 100 scale where 0 is no effect and 100 is complete control; for Velvetleaf plant response rating: 125 g ai/ha; for Plant response rating, Velvetleaf: 500 g ai/ha
Procedure, shortened: as §1

[17] = system: large (Lg) crabgrass; assay: Test A postemergence; format: in vivo, Digitaria sanguinalis; settings: 0 to 100 scale where 0 is no effect and 100 is complete control; for Crabgrass, Large plant response rating: 125 g ai/ha; for Plant response rating, Crabgrass, Large: 500 g ai/ha
Procedure, shortened: as §1

[18] = system: Heteranthera limosa; assay: Test B flooded paddy test; format: in vivo; settings: Flood, 250 g ai/ha; 0 to 100 scale where 0 is no effect and 100 is complete control
Procedure, shortened: as §2

[19] = system: wheat; assay: Test A preemergence; format: in vivo, Triticum aestivum; settings: for Wheat plant response rating (0 to 100 scale): 125 g ai/ha; for Wheat plant response rating: 500 g ai/ha, 0 to 100 scale where 0 is no effect and 100 is complete control
Procedure, shortened: as §1

[20] = system: barnyardgrass; assay: Test B flooded paddy test; format: in vivo, Echinochloa crus-galli; settings: Flood, 250 g ai/ha; 0 to 100 scale where 0 is no effect and 100 is complete control
Procedure, shortened: as §2

SMILES | Corn plant response rating [1] | Plant response rating, Corn [1] | Foxtail, Giant plant response rating [2] | Plant response rating, Sedge, Umbrella [3] | Pigweed plant response rating (0 to 100 scale) [4] | Pigweed plant response rating [4] | Velvetleaf plant response rating (0 to 100 scale) [5] | Velvetleaf plant response rating [5] | Pigweed plant response rating [6] | Plant response rating, Pigweed [6] | Corn plant response rating [7] | Foxtail, Giant plant response rating [8] | Plant response rating, Foxtail, Giant [8] | Morningglory plant response rating [9] | Plant response rating, Morningglory [9] | Morningglory plant response rating (0 to 100 scale) [10] | Morningglory plant response rating [10] | Barnyardgrass plant response rating [11] | Plant response rating, Barnyardgrass [11] | Plant response rating, Rice [12] | further results
N#Cc1cnc(Oc2cccc(C=O)c2-n2cc(Br)cn2)nc1 [Compound 174] | 0 | 0 | 0 | 0 | 0 | 0 | 0 | 0 | 0 | 0 | 0 | 0 | 0 | 0 | 0 | 0 | 0 | 0 | 0 | 0 | Plant response rating, Foxtail, Giant [2]: 0; Plant response rating, Corn [7]: 0; Wheat plant response rating [13]: 0; Plant response rating, Wheat [13]: 0; Plant response rating, Crabgrass, Large [14]: 0; Crabgrass, Large plant response rating [14]: 0; Plant response rating, Barnyardgrass [15]: 0; Barnyardgrass plant response rating [15]: 0; Velvetleaf plant response rating [16]: 0; Plant response rating, Velvetleaf [16]: 0; Crabgrass, Large plant response rating [17]: 0; Plant response rating, Crabgrass, Large [17]: 0; Plant response rating, Ducksalad [18]: 0; Wheat plant response rating (0 to 100 scale) [19]: 0; Wheat plant response rating [19]: 0; Plant response rating, Barnyardgrass [20]: 0
N#Cc1cnc(Oc2cccc(C(F)F)c2-n2cc(Br)cn2)nc1 [Compound 175] | 0 | 0 | 0 | 0 | 0 | 0 | 0 | 0 | 0 | 0 | 0 | 0 | 0 | 0 | 0 | 0 | 0 | 0 | 0 | 0 | Plant response rating, Foxtail, Giant [2]: 0; Plant response rating, Corn [7]: 0; Wheat plant response rating [13]: 0; Plant response rating, Wheat [13]: 0; Plant response rating, Crabgrass, Large [14]: 0; Crabgrass, Large plant response rating [14]: 0; Plant response rating, Barnyardgrass [15]: 0; Barnyardgrass plant response rating [15]: 0; Velvetleaf plant response rating [16]: 0; Plant response rating, Velvetleaf [16]: 0; Crabgrass, Large plant response rating [17]: 0; Plant response rating, Crabgrass, Large [17]: 0; Plant response rating, Ducksalad [18]: 0; Wheat plant response rating (0 to 100 scale) [19]: 0; Wheat plant response rating [19]: 0; Plant response rating, Barnyardgrass [20]: 0
O=Cc1cccc(Oc2ncc(Br)cn2)c1-n1cc(I)cn1 [Compound 183] | 0 | 0 | 0 | 0 | 20 | 90 | 0 | 0 | 20 | 50 | 0 | 0 | 0 | 0 | 0 | 0 | 0 | 0 | 0 | 0 | Foxtail, Giant plant response rating (0 to 100 scale) [2]: 0; Corn plant response rating (0 to 100 scale) [7]: 0; Wheat plant response rating [13]: 0; Plant response rating, Wheat [13]: 0; Crabgrass, Large plant response rating (0 to 100 scale) [14]: 0; Crabgrass, Large plant response rating [14]: 0; Barnyardgrass plant response rating (0 to 100 scale, 0 is no effect, 100 is complete control) [15]: 0; Barnyardgrass plant response rating [15]: 0; Velvetleaf plant response rating [16]: 20; Plant response rating, Velvetleaf [16]: 30; Crabgrass, Large plant response rating [17]: 0; Plant response rating, Crabgrass, Large [17]: 0; Plant response rating, Ducksalad [18]: 0; Wheat plant response rating (0 to 100 scale) [19]: 0; Wheat plant response rating [19]: 0; Plant response rating, Barnyardgrass [20]: 0
CC#Cc1cnn(-c2ccccc2Oc2ncc(Cl)cn2)c1 [Compound 189] | 10 | 40 | 100 | 70 | 100 | 100 | 60 | 80 | 100 | 100 | 0 | 40 | 80 | 50 | 100 | 0 | 30 | 10 | 90 | 0 | Foxtail, Giant plant response rating (0 to 100 scale) [2]: 70; Corn plant response rating (0 to 100 scale) [7]: 0; Wheat plant response rating [13]: 20; Plant response rating, Wheat [13]: 50; Crabgrass, Large plant response rating (0 to 100 scale) [14]: 90; Crabgrass, Large plant response rating [14]: 100; Barnyardgrass plant response rating (0 to 100 scale, 0 is no effect, 100 is complete control) [15]: 20; Barnyardgrass plant response rating [15]: 90; Velvetleaf plant response rating [16]: 90; Plant response rating, Velvetleaf [16]: 100; Crabgrass, Large plant response rating [17]: 30; Plant response rating, Crabgrass, Large [17]: 80; Plant response rating, Ducksalad [18]: 70; Wheat plant response rating (0 to 100 scale) [19]: 0; Wheat plant response rating [19]: 10; Plant response rating, Barnyardgrass [20]: 0
